# Experimental data published in the NIST ThermoML archive (doi:10.1016/j.jct.2018.05.018).
# Numbers after ± are expanded uncertainties.
# Conditions: 100 kPa, Liquid, Vibrating tube method
Structure (SMILES),mass density (293.15 K) [kg/m3],mass density (298.15 K) [kg/m3],mass density (303.15 K) [kg/m3],mass density (308.15 K) [kg/m3],mass density (313.15 K) [kg/m3],mass density (318.15 K) [kg/m3],mass density (323.15 K) [kg/m3]
CO [methanol],791.41 ± 1.5,786.65 ± 1.5,781.85 ± 1.5,776.95 ± 1.5,771.97 ± 1.5,–,–
CCCO [propan-1-ol],803.52 ± 1.5,799.52 ± 1.5,795.5 ± 1.5,791.43 ± 1.5,787.31 ± 1.5,783.11 ± 1.5,778.79 ± 1.5
CCO [ethanol],789.48 ± 1.5,785.12 ± 1.5,780.86 ± 1.5,776.48 ± 1.5,772.17 ± 1.5,767.6 ± 1.5,763.22 ± 1.5
